# In PMC8894927, “Oxylipin signaling in salt-stressed soybean is modulated by ligand-dependent interaction of Class II acyl-CoA-binding proteins with lipoxygenase” (The Plant Cell, 2021):
# Where “and” joins values, the source holds several entries; their conditions need not be identical. Identical values can stand only once.
# B1: (His)6-GmACBP4.1_(33–354) (domain or fragment, UniProt I1KAV2 33-354, looked up)
# chain: DDNLTVTRASAAETTATRAEQFEDALKRDDAVSSDARPFEEESVVAEHGSVRIDSDGDYDDDWEGVESTELDEAFSAATAFVAAAAADRLSQKVSSDVQLQLYGLYKIATEGPCSTPQPSPLKMTARAKWQAWQKLGAMPPEDAMQKYIDIVTEIYPTWLDGSSLRNKSGDSGGHGSEAKGPMGPVFSTFVYEEEYGSDSQMEAIHGFAREGDMANLLKCIENGVSMNLKDSEGRTPLHWAVDRGHLNVTELLVGKNADVNAKDNDGQTPLHYAVTCEREAIAEYLVKHNADIYSKDNDGSSPRDICESNWPCMQHVGEEVN
# notes: In pRSETA (pGM963); also called WT; recombinant GmACBP4.1 without the TM domain; source: E. coli, purified (HisTrap HP, HiTrap Q HP); not shown: (His)6, N-terminal, kept
# How the values were obtained:
# [1] = tested on: GmACBP4.1_33–354 interaction with VLXB:StrepII; test: Strep-Tactin pull-down assay with supplemented acyl-CoAs; format: binding, soybean; details: acyl-CoA 12.5–100 μM, versus control without acyl-CoA
# [2] = target: (His)6-GmACBP4.1_33–354; test: Isothermal titration calorimetry of acyl-CoA binding (WT protein); design: species or system soybean; details: ITC at 25°C; 15 μM protein titrated with 200 μM acyl-CoA; mean ± SD, three experiments; read-out: KD, dissociation constant
# Experimental: ITC was conducted with a MicroCal iTC200 system (GE Healthcare) at 25°C in 10 mM sodium phosphate (pH 7) by 20 injections of 1.8-μL acyl-CoAs (200 μM; Avanti Polar Lipids Inc., Alabaster, AL, USA) into the sample cell with 15 μM purified (His)6-GmACBP4.1. Each injection lasted 4 s at 150-s intervals with a stirring speed of 1,000 rpm. Nonspecific heat effects were estimated and corrected after saturation. The baseline was adjusted, and the data were fitted into a single-site binding model using the Origin version 7.0 software (OriginLab).
# Supplemental Table 1. Binding constants and thermodynamic parameters for (His)6-GmACBP4.133–354 interaction with acyl-CoAs. (Supports Figure 5A) […]
# Isothermal titration calorimetry analysis was performed by titration of 250 μL of 15 μM (His)6-GmACBP4.133–354 with […]
# from three independent experiments. n, stoichiometry (number of ligand sites per protein); KD, dissociation constant; ∆H, enthalpy change; −T∆S, entropy change; ∆G, Gibbs free energy.
# [3] = target: (His)6-GmACBP4.1_33–354 (WT or Y135A mutant); test: Protein–lipid bead binding assay with competing acyl-CoA (PA beads); design: species or system soybean
# [4] = target: T1, GmACBP4.1_33–354 (WT) (Glycine max, UniProt I1KAV2); details: SEM, n = 3
# T1 construct: gene LOC100816670
# T1 sequence (I1KAV2 33-354): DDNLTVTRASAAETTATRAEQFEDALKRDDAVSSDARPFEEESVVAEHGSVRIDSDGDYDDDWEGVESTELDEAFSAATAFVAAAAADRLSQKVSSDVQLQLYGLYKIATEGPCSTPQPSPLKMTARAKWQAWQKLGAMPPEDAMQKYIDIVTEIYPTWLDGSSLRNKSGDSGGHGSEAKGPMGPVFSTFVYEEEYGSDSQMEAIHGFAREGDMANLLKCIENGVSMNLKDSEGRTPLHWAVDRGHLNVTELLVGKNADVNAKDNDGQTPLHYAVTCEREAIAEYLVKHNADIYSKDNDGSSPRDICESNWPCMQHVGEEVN
# From the text: The liposome-associated protein fraction was quantified densitometrically. […] D, Protein–lipid bead binding assays with competing acyl-CoAs. […] Bound and unbound WT (left panel) and Y135A (middle panel) were detected by immunoblotting using anti-GsACBP3 antibodies. Input lanes represent 50% protein. Arrowheads indicate target bands. The PA-bound protein fraction was quantified densitometrically. The half maximal inhibitory concentration (IC50) of the WT is the mean ± SEM from three independent experiments.
# To validate this assumption, the binding of the WT and Y135A mutant to PA beads was investigated in the presence of C18:2-CoA (Figure 5, D).
# After three washes in the same buffer, bound proteins were eluted with 6× Laemmli sample buffer. Protein binding on filter strips, liposomes, and PA beads was detected by immunoblotting using anti-ACBP3.1 antibodies.
# [5] = target: AtACBP1; design: method as in Xue et al., 2014; details: ref Xue et al., 2014; cited from earlier work
# [6] = tested on: GmACBP4.1_33–354 interaction with GmPLDα1:StrepII; test: Strep-Tactin pull-down assay with supplemented acyl-CoAs; format: binding, soybean; details: acyl-CoA 12.5–100 μM, versus control without acyl-CoA
# From the text: Figure 6 Specific acyl-CoA species facilitate GmACBP4 interaction with VLXB and GmPLDα1. A, Strep-Tactin pull-down assays. […] (His)6-GmACBP4.1_33–354 were detected in eluates by immunoblotting using anti-ACBP3 antibodies. […] Input lanes represent 1% protein. Arrowheads indicate target bands of 40-kD (His)6-GmACBP4.1_33–354 (apparent: 50 kD). The bound protein fraction was quantified densitometrically. […] B–C, Strep-Tactin pull-down assays with supplemented acyl-CoAs. […] Input lanes represent 5% proteins in (B) or 10% proteins in (C). Arrowheads indicate target bands of 40-kD (His)6-GmACBP4.1_33–354 (apparent: 50kD).
# Strep-Tactin pull-down assays were performed using Strep-Tactin XT resins (IBA) following the manufacturer’s instructions. Briefly, 5 μL of resins with/without prebound VLXB:StrepII or GmPLDα1:StrepII (0.5 μM) were agitated with GmACBP4.1_33–354 (0.5 μM) and acyl-CoAs (0, 12.5, 25, 50, and 100 μM) in Buffer W containing 0.1 M Tris–HCl (pH 7), 0.15 M NaCl, 1 mM EDTA and 0.05% (w/v) Triton X-100 at 4°C for 2 h. After three washes in Buffer W, bound proteins were eluted in Buffer W with 50 mM biotin, and analyzed by immunoblotting using anti-ACBP3.1 antibodies.
# [7] = tested on: (His)6-GmACBP3.1_33–346; test: Protein–lipid overlay assay; format: binding, soybean; details: commercial strips with 15 neutral and polar lipids; 0.5 μg mL−1 protein
# [8] = tested on: (His)6-GmACBP4.1_33–354; test: Protein–lipid overlay assay; format: binding, soybean; details: commercial strips and PA-spotted nitrocellulose strips; 0.5 μg mL−1 protein
# [9] = tested on: (His)6-GmACBP4.1_33–354; test: Liposome association assay for PA binding; design: species or system soybean; details: PA:di-16:0-PC liposomes, 0–100% (w/w) PA
# [10] = tested on: AtACBP2 interaction with LYSOPL2; design: method as in Miao et al., 2019; details: ref Miao et al., 2019; cited from earlier work
# [11] = target: T2, GmPLDα1:StrepII (soybean, UniProt I1KH24 1-809); test: pull-down; Strep-Tactin XT resins with prebound VLXB:StrepII or GmPLDα1:StrepII (0.5 μM) agitated with (His)6-GmACBP4.1(33-354) (0.5 μM) and acyl-CoAs (0, 12.5, 25, 50, 100 μM) in 0.1 M Tris-HCl pH 7, 0.15 M NaCl, 1 mM EDTA, 0.05% Triton X-100 at 4°C for 2 h; eluted with 50 mM biotin; immunoblot with anti-ACBP3.1 antibodies; details: both partners purified
# T2 construct: GmPLDα1, soybean phospholipase Dα1 (Glyma.07G031100), ORF; In pRSETA (pGM1032); the methods call these proteins (His)6/StrepII-tagged; also called soybean PHOSPHOLIPASE Dα1; source: E. coli, purified (HisTrap HP, Strep-Tactin XT); not shown: StrepII, C-terminal, kept
# T2 sequence (looked up): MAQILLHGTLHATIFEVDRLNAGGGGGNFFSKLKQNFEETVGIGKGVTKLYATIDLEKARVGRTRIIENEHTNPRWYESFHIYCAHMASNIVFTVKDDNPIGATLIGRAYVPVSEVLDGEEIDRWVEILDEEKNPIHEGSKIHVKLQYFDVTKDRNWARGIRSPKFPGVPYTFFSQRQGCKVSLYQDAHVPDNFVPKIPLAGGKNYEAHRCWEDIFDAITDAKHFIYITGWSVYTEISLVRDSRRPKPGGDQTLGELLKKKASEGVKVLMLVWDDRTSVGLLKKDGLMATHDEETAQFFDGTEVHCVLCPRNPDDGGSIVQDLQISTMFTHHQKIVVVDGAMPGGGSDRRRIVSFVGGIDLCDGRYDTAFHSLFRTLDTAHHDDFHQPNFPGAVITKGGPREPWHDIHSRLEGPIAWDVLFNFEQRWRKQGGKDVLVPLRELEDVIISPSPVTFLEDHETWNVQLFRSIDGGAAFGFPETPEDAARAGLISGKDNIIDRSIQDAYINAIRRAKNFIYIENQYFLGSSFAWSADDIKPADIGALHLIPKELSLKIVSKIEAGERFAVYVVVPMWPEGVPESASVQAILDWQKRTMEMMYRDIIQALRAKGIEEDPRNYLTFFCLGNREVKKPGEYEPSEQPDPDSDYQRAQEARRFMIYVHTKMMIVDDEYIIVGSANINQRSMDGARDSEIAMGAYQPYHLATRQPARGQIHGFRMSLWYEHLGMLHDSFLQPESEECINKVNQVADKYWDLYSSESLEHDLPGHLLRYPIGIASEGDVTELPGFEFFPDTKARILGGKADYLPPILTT
# [12] = target: T3, VLXB:StrepII (soybean, UniProt A0A0R0G554 1-853); test: as above; details: both partners purified
# T3 construct: VLXB, soybean vegetative type-1 lipoxygenase homolog (Glyma.15G026500), ORF; In pRSETA (pGM1027); the methods call these proteins (His)6/StrepII-tagged; also called recombinant VLXB:StrepII; source: E. coli, purified (HisTrap HP, Strep-Tactin XT); not shown: StrepII, C-terminal, kept
# T3 sequence (looked up): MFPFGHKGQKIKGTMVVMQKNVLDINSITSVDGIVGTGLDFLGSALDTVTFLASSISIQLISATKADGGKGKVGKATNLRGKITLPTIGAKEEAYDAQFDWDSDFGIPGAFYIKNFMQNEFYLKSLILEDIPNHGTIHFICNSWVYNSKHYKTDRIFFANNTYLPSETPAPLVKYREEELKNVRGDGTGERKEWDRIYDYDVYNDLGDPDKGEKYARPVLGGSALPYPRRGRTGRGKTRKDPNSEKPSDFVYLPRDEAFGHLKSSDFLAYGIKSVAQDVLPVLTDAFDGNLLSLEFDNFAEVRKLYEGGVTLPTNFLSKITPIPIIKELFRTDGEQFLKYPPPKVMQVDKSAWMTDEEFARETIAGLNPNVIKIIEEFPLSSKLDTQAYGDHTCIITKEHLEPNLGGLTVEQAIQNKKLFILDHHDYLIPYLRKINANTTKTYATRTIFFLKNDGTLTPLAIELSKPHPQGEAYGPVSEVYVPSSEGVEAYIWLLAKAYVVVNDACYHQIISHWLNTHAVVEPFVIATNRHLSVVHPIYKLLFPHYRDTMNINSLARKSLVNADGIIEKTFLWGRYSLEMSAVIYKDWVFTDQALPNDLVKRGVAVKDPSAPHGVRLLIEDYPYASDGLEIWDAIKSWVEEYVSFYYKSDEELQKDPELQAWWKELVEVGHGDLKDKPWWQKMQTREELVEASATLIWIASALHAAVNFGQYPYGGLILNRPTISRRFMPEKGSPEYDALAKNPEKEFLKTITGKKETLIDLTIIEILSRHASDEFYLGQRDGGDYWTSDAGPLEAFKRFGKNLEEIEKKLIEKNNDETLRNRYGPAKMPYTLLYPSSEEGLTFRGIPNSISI
# [13] = target: T3, VLXB:StrepII; test: cell-based or functional assay
molecule,measurement,setting,value
"CCCCC/C=C\C/C=C\CCCCCCCC(=O)SCCNC(=O)CCNC(=O)[C@H](O)C(C)(C)COP(=O)(O)OP(=O)(O)OC[C@H]1O[C@@H](n2cnc3c(N)ncnc32)[C@H](O)[C@@H]1OP(=O)(O)O [C18:2-CoA, linoleoyl-CoA]",increase in WT binding with VLXB:StrepII,[1],up to four-fold
same,Kd,[2],920 nM and 900 to 1200 nM
same,IC50,"[3]; WT protein 2.5 μg mL−1, 1 μM PA beads, competing C18:2-CoA, mean ± SEM, three experiments, read-out: half maximal inhibitory concentration (IC50) for PA-bound WT fraction",22.9 µM
same,effect on Y135A binding to PA beads,"[3]; Y135A mutant, compared with WT",less affected
same,IC50,[4],22.9 µM
same,Kd,[5],400 to 800 nM
same,increase in WT binding with GmPLDα1:StrepII,[6],did not influence
CCCCCCCCCCCCCCCC(=O)OCC(COP(=O)(O)O)OC(=O)CCCCCCCCCCCCCCC (centres unmarked) [di-16:0-PA],binding on lipid filter strips,[7],sole ligand
same,binding on lipid filter strips,[8],sole ligand
same,descending order of affinity to the WT (liposome association),[9],di-16:0-PA ≈ di-18:1-PA > di-18:0-PA > di-14:0-PA
same,descending order of affinity to the WT (liposome association),[9]; listed as 32:0-PA,relatively higher affinity
lysophosphatidylcholine,fold higher affinity of AtACBP2 for LYSOPL2 interaction when complexed with the ligand,[10],10 fold
B1,fold increase of binding with C16:0/C18:1-CoAs against no acyl-CoA,[11],≤ 9 fold
same,fold increase of binding with 100 µM C18:3-CoA against no acyl-CoA,[12],9 fold
same,fold increase of binding with C18:2-CoA against no acyl-CoA,[12],≤ 4 fold
same,IC50 of in vitro LOX activity of 100 nM VLXB:StrepII after incubation with 0.1-300 nM (His)6-GmACBP4.1(33-354) WT and 10 µM C18:2-CoA,[13],8.5 nM
same,IC50 of in vitro LOX activity of 100 nM VLXB:StrepII after incubation with 0.1-300 nM (His)6-GmACBP4.1(33-354) WT and 10 µM C18:3-CoA,[13],5 nM
